Legend:
Type in all cases: biochemical
[1] = target: T1, Fak (Homo sapiens, UniProt Q05397); assay: AlphaScreen kinase assay, Fak; details: read-out: IC50, activity toward kinase Fak
T1 construct: P1358.pFastBacHtb FAK S411-Q686-X; His6 with pFastBacHTb leader (TEV site) (N); made in house; host or cells: Sf9 (baculovirus)

[2] = target: T2, Stk6 (Homo sapiens, UniProt O14965); assay: Z'-Lyte FRET kinase assay (Invitrogen), Stk6; details: read-out: IC50, activity toward kinase Stk6
T2 construct: purchased Invitrogen (Carlsbad, Calif.), screening service
T2 sequence (O14965 1-403): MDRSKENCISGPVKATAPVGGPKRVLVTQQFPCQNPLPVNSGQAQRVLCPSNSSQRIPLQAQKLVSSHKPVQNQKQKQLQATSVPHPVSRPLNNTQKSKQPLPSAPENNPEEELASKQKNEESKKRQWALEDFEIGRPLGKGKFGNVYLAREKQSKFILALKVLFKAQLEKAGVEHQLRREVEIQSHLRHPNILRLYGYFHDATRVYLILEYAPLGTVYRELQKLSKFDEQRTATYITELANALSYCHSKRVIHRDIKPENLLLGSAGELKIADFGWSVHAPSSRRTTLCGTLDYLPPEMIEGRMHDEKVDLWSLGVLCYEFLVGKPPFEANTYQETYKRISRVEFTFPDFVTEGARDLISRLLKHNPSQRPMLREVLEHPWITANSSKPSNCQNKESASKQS

[3] = target: T3, Btk (Homo sapiens, UniProt Q06187); assay: Z'-Lyte FRET kinase assay (Invitrogen), Btk; details: read-out: IC50, activity toward kinase Btk
T3 construct: purchased Invitrogen (assay run by Invitrogen)

[4] = target: T4, FGFR1 (Homo sapiens, UniProt P11362, C488A/C584S); assay: AlphaScreen kinase assay, FGFR1; details: read-out: IC50, activity toward kinase FGFR
T4 construct: P1351.pET N6 BI-PTP FGFR A458-E765-X C488A, C584S; made in house; host or cells: E. coli (PTP1B co-expressed)

[5] = target: T5, Kit (Homo sapiens, UniProt P10721); assay: AlphaScreen kinase assay, Kit; details: read-out: IC50, activity toward kinase Kit
T5 construct: P1332.N6 BI PTP KIT M552-K948-X COD; His6 (N); made in house; host or cells: E. coli (PTP1B co-expressed)

[6] = target: T6, B-Raf (Homo sapiens, UniProt P15056); assay: AlphaScreen kinase assay, B-Raf; details: read-out: IC50, activity toward kinase B-Raf
T6 construct: purchased Upstate Biotechnology

[7] = target: T7, B-Raf V600E (Homo sapiens, UniProt P15056, V600E); assay: AlphaScreen kinase assay, B-Raf V600E; details: read-out: IC50, activity toward kinase B-Raf V600E
T7 construct: P4254. pFastBacBD-CDC37 BRAF D437-K722-X, V600E; His6 with pFastBac HT leader (TEV site) (N); made in house; host or cells: Sf9 (baculovirus; chaperone CDC37 co-expressed)

[8] = target: T8, Flt1 (Homo sapiens, UniProt P17948); assay: AlphaScreen kinase assay, Flt1; details: read-out: IC50, activity toward kinase Flt1
T8 construct: P1826.pETN6 BI-PTP FLT1 M799-D1165-X WT; His6 (N); made in house; host or cells: E. coli (PTP1B co-expressed)
T8 sequence (P17948 with tags, fused parts or gaps): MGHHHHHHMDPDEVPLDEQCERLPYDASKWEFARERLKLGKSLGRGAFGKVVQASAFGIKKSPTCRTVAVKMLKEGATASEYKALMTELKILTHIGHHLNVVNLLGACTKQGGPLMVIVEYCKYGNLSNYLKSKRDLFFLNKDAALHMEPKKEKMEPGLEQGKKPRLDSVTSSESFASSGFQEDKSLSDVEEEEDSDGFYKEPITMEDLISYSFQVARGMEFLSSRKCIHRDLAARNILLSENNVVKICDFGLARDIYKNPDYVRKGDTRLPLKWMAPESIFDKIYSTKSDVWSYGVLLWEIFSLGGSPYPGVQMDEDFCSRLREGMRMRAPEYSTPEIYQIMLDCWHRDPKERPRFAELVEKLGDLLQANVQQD

[9] = target: T9, Jnk1 (Homo sapiens, UniProt P45983); assay: AlphaScreen kinase assay, Jnk1; details: read-out: IC50, activity toward kinase Jnk1
T9 construct: purchased Upstate Biotechnology

[10] = target: T10, Src (Homo sapiens, UniProt P12931); assay: AlphaScreen kinase assay, Src; details: read-out: IC50, activity toward kinase Src
T10 construct: P1144. pET-N6 BI-PTP SRC V86-L536-X; made in house

[11] = target: T11, c-Raf-1 (Homo sapiens, UniProt P04049); assay: AlphaScreen kinase assay, c-Raf-1; details: read-out: IC50, activity toward kinase c-Raf-1
T11 construct: purchased Upstate Biotechnology

[12] = target: T12, Fms (Homo sapiens, UniProt P07333); assay: AlphaScreen kinase assay, Fms; details: read-out: IC50, activity toward kinase Fms
T12 construct: purchased Upstate Biotechnology

[13] = target: T13, Ret (Homo sapiens, UniProt P07949); assay: AlphaScreen kinase assay, Ret; details: read-out: IC50, activity toward kinase Ret
T13 construct: P1378.pET-SF BI-PTP RET H661-R1012 HIS; made in house
T13 sequence (P07949 with tags, fused parts or gaps): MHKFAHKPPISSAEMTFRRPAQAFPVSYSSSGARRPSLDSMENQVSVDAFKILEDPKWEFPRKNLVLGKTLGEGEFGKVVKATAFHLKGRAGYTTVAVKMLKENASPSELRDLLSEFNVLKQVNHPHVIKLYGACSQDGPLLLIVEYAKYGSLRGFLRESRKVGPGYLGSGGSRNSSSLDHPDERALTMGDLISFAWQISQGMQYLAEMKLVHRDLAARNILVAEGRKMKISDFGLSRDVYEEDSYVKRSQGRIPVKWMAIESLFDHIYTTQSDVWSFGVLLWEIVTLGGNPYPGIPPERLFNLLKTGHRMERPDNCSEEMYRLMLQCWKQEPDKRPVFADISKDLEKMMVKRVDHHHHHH

[14] = target: T14, Jnk3 (Homo sapiens, UniProt P53779); assay: AlphaScreen kinase assay, Jnk3; details: read-out: IC50, activity toward kinase Jnk3
T14 construct: purchased Upstate Biotechnology
T14 sequence (P53779 whole entry): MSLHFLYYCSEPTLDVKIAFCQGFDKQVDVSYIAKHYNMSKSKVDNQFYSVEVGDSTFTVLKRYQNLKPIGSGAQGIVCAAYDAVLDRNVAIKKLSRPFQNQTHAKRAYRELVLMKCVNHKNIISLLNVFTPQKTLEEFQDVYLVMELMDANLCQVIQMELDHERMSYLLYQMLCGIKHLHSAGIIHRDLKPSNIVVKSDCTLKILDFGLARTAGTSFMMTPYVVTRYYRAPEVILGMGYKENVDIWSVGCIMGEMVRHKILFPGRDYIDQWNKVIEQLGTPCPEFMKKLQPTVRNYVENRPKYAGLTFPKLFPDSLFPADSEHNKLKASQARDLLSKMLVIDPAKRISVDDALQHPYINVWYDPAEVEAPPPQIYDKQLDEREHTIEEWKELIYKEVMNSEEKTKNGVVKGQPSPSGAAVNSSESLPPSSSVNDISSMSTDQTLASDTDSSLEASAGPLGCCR

T5 sequence (P10721 with tags, fused parts or gaps): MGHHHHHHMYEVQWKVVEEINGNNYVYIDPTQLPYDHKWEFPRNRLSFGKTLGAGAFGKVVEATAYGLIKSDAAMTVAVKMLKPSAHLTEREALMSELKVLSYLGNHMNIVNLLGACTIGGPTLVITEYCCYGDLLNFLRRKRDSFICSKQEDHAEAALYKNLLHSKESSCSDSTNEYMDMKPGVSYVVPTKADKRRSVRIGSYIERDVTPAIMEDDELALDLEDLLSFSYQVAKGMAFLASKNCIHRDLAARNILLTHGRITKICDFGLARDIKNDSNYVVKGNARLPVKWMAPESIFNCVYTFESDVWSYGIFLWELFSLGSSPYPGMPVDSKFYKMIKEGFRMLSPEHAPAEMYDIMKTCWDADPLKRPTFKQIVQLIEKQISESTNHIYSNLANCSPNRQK
T9 sequence (P45983 whole entry): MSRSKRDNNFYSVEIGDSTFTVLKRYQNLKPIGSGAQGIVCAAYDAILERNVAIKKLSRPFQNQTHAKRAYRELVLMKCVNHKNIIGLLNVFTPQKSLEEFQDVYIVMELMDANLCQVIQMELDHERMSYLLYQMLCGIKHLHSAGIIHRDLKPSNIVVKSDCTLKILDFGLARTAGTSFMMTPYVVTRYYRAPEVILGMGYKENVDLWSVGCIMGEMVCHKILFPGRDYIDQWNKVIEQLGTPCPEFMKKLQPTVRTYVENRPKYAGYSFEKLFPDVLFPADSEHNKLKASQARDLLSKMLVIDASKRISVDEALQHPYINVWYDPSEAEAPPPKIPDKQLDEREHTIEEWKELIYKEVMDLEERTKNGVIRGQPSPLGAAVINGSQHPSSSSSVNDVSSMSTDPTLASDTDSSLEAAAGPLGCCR
T4 sequence (P11362 458-765 C488A/C584S): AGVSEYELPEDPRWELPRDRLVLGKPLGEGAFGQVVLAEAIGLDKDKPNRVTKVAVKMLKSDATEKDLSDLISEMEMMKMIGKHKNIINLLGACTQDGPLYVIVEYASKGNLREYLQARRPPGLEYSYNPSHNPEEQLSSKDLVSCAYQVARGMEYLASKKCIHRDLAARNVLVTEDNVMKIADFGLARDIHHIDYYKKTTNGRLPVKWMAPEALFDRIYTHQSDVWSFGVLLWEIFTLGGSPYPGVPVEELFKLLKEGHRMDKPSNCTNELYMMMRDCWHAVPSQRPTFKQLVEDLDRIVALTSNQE
T12 sequence (P07333 20-972): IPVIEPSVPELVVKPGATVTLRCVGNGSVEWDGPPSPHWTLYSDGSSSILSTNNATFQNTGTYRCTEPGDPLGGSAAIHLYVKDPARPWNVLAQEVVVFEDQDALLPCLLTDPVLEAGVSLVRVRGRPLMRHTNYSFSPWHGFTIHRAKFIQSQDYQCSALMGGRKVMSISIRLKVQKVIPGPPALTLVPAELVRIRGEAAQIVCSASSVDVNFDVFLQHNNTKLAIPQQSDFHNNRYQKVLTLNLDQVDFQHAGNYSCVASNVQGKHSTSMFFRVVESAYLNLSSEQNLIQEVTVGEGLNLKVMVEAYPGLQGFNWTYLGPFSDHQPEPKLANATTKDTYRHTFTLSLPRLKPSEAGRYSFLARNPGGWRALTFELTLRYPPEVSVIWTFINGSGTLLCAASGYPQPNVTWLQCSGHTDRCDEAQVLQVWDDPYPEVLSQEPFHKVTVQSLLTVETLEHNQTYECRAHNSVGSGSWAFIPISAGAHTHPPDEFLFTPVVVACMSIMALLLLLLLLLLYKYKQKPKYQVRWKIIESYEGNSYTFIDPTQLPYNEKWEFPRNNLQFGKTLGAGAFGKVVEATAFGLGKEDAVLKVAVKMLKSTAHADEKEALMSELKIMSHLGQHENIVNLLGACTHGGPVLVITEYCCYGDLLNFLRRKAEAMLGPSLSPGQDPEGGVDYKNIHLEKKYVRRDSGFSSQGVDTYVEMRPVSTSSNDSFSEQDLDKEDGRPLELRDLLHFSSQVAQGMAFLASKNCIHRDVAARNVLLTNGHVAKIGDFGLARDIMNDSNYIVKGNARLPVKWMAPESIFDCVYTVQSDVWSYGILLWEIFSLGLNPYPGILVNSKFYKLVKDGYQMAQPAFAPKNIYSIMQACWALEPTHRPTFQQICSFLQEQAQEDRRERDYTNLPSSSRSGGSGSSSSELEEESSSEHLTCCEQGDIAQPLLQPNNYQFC
T11 sequence (P04049 whole entry): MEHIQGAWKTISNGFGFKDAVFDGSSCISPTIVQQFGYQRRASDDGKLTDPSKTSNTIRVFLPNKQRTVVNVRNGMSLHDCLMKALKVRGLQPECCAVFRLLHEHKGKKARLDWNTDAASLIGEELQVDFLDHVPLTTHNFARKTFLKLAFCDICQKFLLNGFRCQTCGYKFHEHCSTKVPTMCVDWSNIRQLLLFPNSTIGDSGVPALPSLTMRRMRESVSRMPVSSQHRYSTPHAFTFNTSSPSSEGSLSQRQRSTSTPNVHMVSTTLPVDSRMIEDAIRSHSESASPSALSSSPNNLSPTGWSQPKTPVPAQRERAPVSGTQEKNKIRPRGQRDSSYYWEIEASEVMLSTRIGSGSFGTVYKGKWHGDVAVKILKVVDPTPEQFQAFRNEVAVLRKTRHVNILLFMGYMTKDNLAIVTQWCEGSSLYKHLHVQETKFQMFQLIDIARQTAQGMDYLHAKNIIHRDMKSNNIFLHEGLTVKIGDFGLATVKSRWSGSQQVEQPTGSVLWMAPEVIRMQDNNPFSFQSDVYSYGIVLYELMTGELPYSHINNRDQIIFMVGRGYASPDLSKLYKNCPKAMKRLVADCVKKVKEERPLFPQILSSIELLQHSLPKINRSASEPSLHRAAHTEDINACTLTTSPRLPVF
T7 sequence (P15056 with tags, fused parts or gaps V600E): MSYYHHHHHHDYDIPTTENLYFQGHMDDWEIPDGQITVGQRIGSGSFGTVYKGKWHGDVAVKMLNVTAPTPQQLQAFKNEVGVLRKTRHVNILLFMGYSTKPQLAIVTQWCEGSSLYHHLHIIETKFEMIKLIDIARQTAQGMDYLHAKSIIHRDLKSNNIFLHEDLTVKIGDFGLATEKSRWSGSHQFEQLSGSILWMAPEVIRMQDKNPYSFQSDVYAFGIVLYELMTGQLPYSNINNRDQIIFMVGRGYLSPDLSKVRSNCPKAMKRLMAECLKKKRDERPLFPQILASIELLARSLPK
T6 sequence (P15056 whole entry): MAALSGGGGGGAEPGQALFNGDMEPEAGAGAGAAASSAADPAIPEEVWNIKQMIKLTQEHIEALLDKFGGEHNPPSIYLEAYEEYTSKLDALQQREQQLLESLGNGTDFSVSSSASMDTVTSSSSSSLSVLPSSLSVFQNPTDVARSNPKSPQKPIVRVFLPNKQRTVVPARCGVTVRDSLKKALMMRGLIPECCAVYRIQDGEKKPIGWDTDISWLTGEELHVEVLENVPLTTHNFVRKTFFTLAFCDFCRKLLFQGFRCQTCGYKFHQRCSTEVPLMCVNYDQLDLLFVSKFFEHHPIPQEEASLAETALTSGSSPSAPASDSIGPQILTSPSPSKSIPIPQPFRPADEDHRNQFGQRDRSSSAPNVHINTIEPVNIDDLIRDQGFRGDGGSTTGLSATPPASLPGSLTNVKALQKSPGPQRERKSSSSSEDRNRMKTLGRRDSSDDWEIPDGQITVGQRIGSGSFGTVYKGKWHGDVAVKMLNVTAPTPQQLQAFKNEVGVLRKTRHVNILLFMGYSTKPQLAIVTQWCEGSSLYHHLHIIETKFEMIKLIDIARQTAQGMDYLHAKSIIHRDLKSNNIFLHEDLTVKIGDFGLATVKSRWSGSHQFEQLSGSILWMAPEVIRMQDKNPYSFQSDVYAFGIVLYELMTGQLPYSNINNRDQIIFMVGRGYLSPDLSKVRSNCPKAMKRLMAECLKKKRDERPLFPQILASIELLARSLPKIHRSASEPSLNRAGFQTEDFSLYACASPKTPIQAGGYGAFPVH
T1 sequence (Q05397 411-686): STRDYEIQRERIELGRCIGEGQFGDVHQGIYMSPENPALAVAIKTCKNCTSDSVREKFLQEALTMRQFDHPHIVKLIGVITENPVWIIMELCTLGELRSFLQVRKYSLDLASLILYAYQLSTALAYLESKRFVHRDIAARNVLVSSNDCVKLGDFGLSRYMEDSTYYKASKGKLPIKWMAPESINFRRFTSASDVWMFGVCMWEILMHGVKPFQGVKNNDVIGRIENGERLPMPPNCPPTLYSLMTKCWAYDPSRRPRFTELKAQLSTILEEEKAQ

IC50 [1]	IC50 [2]	IC50 [3]	IC50 [4]	IC50 [5]	IC50 [6]	IC50 [7]	IC50 [8]	IC50 [9]	IC50 [10]	IC50 [11]	IC50 [12]	IC50 [13]	IC50 [14]	SMILES
≤ 10 µM	≤ 10 µM	–	–	–	–	–	–	–	–	–	–	–	–	O=Cc1ccsc1-c1ccnc2[nH]ccc12 [Compound P-0276]
–	–	≤ 10 µM	≤ 10 µM	≤ 10 µM	–	–	–	–	–	–	–	–	–	Cc1ccccc1C(=O)c1c[nH]c2ncc(Br)cc12 [Compound P-0217]
≤ 10 µM	–	–	≤ 10 µM	≤ 10 µM	≤ 10 µM	≤ 10 µM	≤ 10 µM	≤ 10 µM	≤ 10 µM	–	–	–	–	O=C(Nc1cccc(Cc2c[nH]c3ncc(-c4cccnc4)cc23)c1)NC1CCCC1 [Compound P-1446, 1-Cyclopentyl-3-[3-(5-pyridin-3-yl-1H-pyrrolo[2,3-b]pyridin-3-ylmethyl)-phenyl]-urea]
≤ 10 µM	–	–	≤ 10 µM	≤ 10 µM	≤ 10 µM	≤ 10 µM	≤ 10 µM	≤ 10 µM	≤ 10 µM	≤ 10 µM	–	–	–	CCCS(=O)(=O)Nc1cccc(C(=O)c2c[nH]c3ncc(OC)cc23)c1F [Compound P-1256, Propane-1-sulfonic acid [2-fluoro-3-(5-methoxy-1H-pyrrolo[2,3-b]pyridine-3-carbonyl)-phenyl]-amide]
≤ 10 µM	–	–	≤ 10 µM	≤ 10 µM	≤ 10 µM	≤ 10 µM	–	–	≤ 10 µM	≤ 10 µM	≤ 10 µM	–	–	O=C(Nc1ccc(F)c(C(O)c2c[nH]c3ncc(Br)cc23)c1F)OCc1ccccc1 (stereo not drawn) [Compound P-1451]
≤ 10 µM	–	–	≤ 10 µM	≤ 10 µM	≤ 10 µM	≤ 10 µM	≤ 10 µM	≤ 10 µM	≤ 10 µM	≤ 10 µM	≤ 10 µM	–	–	CCCS(=O)(=O)Nc1ccc(F)c(C(=O)c2c[nH]c3ncc(OC)cc23)c1 [Compound P-1433]
–	–	≤ 10 µM	–	–	–	–	–	–	–	–	–	≤ 10 µM	–	CC(=O)Nc1cccc(-c2ccnc3[nH]cc(C(=O)c4ccccc4C)c23)c1 [Compound P-0314]
≤ 10 µM	–	–	≤ 10 µM	≤ 10 µM	≤ 10 µM	≤ 10 µM	–	≤ 10 µM	≤ 10 µM	–	–	–	≤ 10 µM	CC(=O)Nc1cccc(-c2cnc3[nH]cc(Cc4ccccc4F)c3c2)c1 [Compound P-1347]
≤ 10 µM	–	–	≤ 10 µM	≤ 10 µM	≤ 10 µM	≤ 10 µM	–	≤ 10 µM	≤ 10 µM	–	≤ 10 µM	–	≤ 10 µM	NC(=O)c1cccc(-c2cnc3[nH]cc(C(=O)c4ccccc4O)c3c2)c1 [Compound P-1384]
≤ 10 µM	–	–	≤ 10 µM	≤ 10 µM	≤ 10 µM	≤ 10 µM	–	≤ 10 µM	≤ 10 µM	–	–	–	≤ 10 µM	NC(=O)c1ccc(-c2cnc3[nH]cc(Cc4ccccc4F)c3c2)cc1 [Compound P-1348]
≤ 10 µM	–	–	≤ 10 µM	–	≤ 10 µM	≤ 10 µM	–	–	≤ 10 µM	–	≤ 10 µM	–	≤ 10 µM	Fc1cccc(F)c1Cc1c[nH]c2ncc(-c3cccnc3)cc12 [Compound P-1477, 3-(2,6-Difluoro-benzyl)-5-pyridin-3-yl-1H-pyrrolo[2,3-b]pyridine]
≤ 10 µM	–	–	≤ 10 µM	≤ 10 µM	≤ 10 µM	≤ 10 µM	≤ 10 µM	–	≤ 10 µM	≤ 10 µM	≤ 10 µM	–	–	O=C(c1cccc(NS(=O)(=O)c2ccccc2)c1F)c1c[nH]c2ncc(Cl)cc12 [Compound P-1255, N-[3-(5-chloro-1H-pyrrolo[2,3-b]pyridine-3-carbonyl)-2-fluoro-phenyl]benzenesulfonamide]
≤ 10 µM	–	–	≤ 10 µM	≤ 10 µM	≤ 10 µM	≤ 10 µM	≤ 10 µM	–	≤ 10 µM	≤ 10 µM	≤ 10 µM	–	–	CCCCS(=O)(=O)Nc1cccc(C(=O)c2c[nH]c3ncc(Cl)cc23)c1F [Compound P-1250, Butane-1-sulfonic acid [3-(5-chloro-1H-pyrrolo[2,3-b]pyridine-3-carbonyl)-2-fluoro-phenyl]-amide]
≤ 10 µM	–	–	≤ 10 µM	≤ 10 µM	≤ 10 µM	≤ 10 µM	–	–	≤ 10 µM	≤ 10 µM	≤ 10 µM	–	–	COc1ccc(F)c(C(=O)c2c[nH]c3ncc(-c4ccccc4)cc23)c1F [Compound P-1387, (2,6-Difluoro-3-methoxy-phenyl)-(5-phenyl-1H-pyrrolo[2,3-b]pyridin-3-yl)-methanone]
≤ 10 µM	–	–	≤ 10 µM	≤ 10 µM	≤ 10 µM	≤ 10 µM	–	–	≤ 10 µM	≤ 10 µM	≤ 10 µM	–	–	CCCS(=O)(=O)Nc1ccc(F)c(Cc2c[nH]c3ncc(-c4cccnc4)cc23)c1F [Compound P-1397]
≤ 10 µM	–	–	≤ 10 µM	≤ 10 µM	≤ 10 µM	≤ 10 µM	–	–	≤ 10 µM	≤ 10 µM	≤ 10 µM	–	–	COc1ccc(F)c(C(=O)c2c[nH]c3ncc(-c4cccc(NS(C)(=O)=O)c4)cc23)c1F [Compound P-1391, N-{3-[3-(2,6-Difluoro-3-methoxy-benzoyl)-1H-pyrrolo[2,3-b]pyridin-5-yl]-phenyl}-methanesulfonamide]
≤ 10 µM	–	–	≤ 10 µM	≤ 10 µM	–	≤ 10 µM	≤ 10 µM	–	≤ 10 µM	≤ 10 µM	≤ 10 µM	–	–	CCCS(=O)(=O)Nc1ccc(F)c(C(=O)c2c[nH]c3ncc(Br)cc23)c1 [Compound P-1403, Propane-1-sulfonic acid [3-(5-bromo-1H-pyrrolo[2,3-b]pyridine-3-carbonyl)-4-fluoro-phenyl]-amide]
–	–	≤ 10 µM	–	–	–	–	–	–	–	–	–	≤ 10 µM	–	CC(=O)Nc1cccc(-c2ccnc3[nH]cc(C(=O)c4cc(F)ccc4F)c23)c1 [Compound P-0280]
